Reference: PubChem BioAssay AID1918999 (Molecular Pharmacology Branch, DTP, NCI, 2023)

Test system: 556581-035-R-J1-PDC complex spheroid growth
Experiment: Anticancer human tumor 556581-035-R-J1-PDC patient-derived ovarian carcinoma cell line growth inhibition [AhR]
Details: for IC50: curve of first compound; for viability, T/C: stronger effect = lower value
Summary of the method: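 Spheroids combined tumor cells with HUVEC endothelial cells and human MSCs as stroma. AhR antagonists were paired with standard or investigational drugs, each dosed in half-log steps down from near clinical Cmax, or from 10 microM where Cmax was unknown.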

[1] = second compound 0.1 µM, first compound 0.00949 µM
[2] = second compound 0.1 µM, first compound 0.03 µM
[3] = second compound 0.1 µM, first compound 0.0949 µM
[4] = second compound 0.1 µM, first compound 0.3 µM
[5] = second compound 0.1 µM, first compound 0.949 µM
[6] = second compound 0.1 µM, first compound 3 µM
[7] = second compound 0.316 µM, first compound 0.00949 µM
[8] = second compound 0.316 µM, first compound 0.03 µM
[9] = second compound 0.316 µM, first compound 0.0949 µM
[10] = second compound 0.316 µM, first compound 0.3 µM
[11] = second compound 0.316 µM, first compound 0.949 µM
[12] = second compound 0.316 µM, first compound 3 µM
[13] = second compound 1 µM, first compound 0.00949 µM
[14] = second compound 1 µM, first compound 0.03 µM
[15] = second compound 1 µM, first compound 0.0949 µM
[16] = second compound 1 µM, first compound 0.3 µM
[17] = second compound 1 µM, first compound 0.949 µM
[18] = second compound 1 µM, first compound 3 µM
[19] = second compound 3.16 µM, first compound 0.00949 µM
[20] = second compound 3.16 µM, first compound 0.03 µM
[21] = second compound 3.16 µM, first compound 0.0949 µM
[22] = second compound 3.16 µM, first compound 0.3 µM
[23] = second compound 3.16 µM, first compound 0.949 µM
[24] = second compound 3.16 µM, first compound 3 µM
[25] = second compound 10 µM, first compound 0.00949 µM
[26] = second compound 10 µM, first compound 0.03 µM
[27] = second compound 10 µM, first compound 0.0949 µM
[28] = second compound 10 µM, first compound 0.3 µM
[29] = second compound 10 µM, first compound 0.949 µM
[30] = second compound 10 µM, first compound 3 µM
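For viability, T/C in this document: compound exposure lasted 7 days; 100% = DMSO vehicle control growth.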

Row | IC50 (second compound 0.1 µM) [µM] | IC50 (second compound 0.316 µM) [µM] | IC50 (second compound 1 µM) [µM] | IC50 (second compound 3.16 µM) [µM] | IC50 (second compound 10 µM) [µM] | Structure (SMILES) | viability, T/C [1] [%] | viability, T/C [2] [%] | viability, T/C [3] [%] | viability, T/C [4] [%] | viability, T/C [7] [%] | viability, T/C [8] [%] | viability, T/C [9] [%] | viability, T/C [10] [%] | viability, T/C [13] [%] | viability, T/C [14] [%] | viability, T/C [15] [%] | viability, T/C [16] [%] | viability, T/C [19] [%] | viability, T/C [20] [%] | viability, T/C [21] [%] | also measured
1 | > 3 | > 3 | > 3 | > 3 | > 3 | CCN(c1cc(-c2ccc(CN3CCOCC3)cc2)cc(C(=O)NCc2c(C)cc(C)[nH]c2=O)c1C)C1CCOCC1 + CC(CO)NC(=O)c1cc(-c2ccc(Cl)cc2)nn(-c2cnn(C)c2)c1=O | 103 | 102 | 94.7 | 94.7 | 102 | 91.2 | 96.5 | 92.2 | 106 | 106 | 117 | 105 | 106 | 99.7 | 90.7 | viability, T/C [5]: 102%; viability, T/C [6]: 91.8%; viability, T/C [11]: 108%; viability, T/C [12]: 91.8%; viability, T/C [17]: 87.8%; viability, T/C [18]: 106%; viability, T/C [22]: 95%; viability, T/C [23]: 100%; viability, T/C [24]: 87.9%; viability, T/C [25]: 94.9%; viability, T/C [26]: 101%; viability, T/C [27]: 113%; viability, T/C [28]: 94.6%; viability, T/C [29]: 89.8%; viability, T/C [30]: 94.8%
2 | > 0.3 | > 0.3 | > 0.3 | > 0.3 | > 0.3 | Nc1ncn(C2CC(O)C(CO)S2)c(=O)n1 (stereo not given) + CC(CO)NC(=O)c1cc(-c2ccc(Cl)cc2)nn(-c2cnn(C)c2)c1=O | 106 | 115 | 109 | 73.3 | 116 | 111 | 100 | 69.9 | 126 | 121 | 108 | 80.2 | 125 | 109 | 97.1 | viability, T/C (second compound 0.1 µM, first compound 0.000949 µM): 122%; viability, T/C (second compound 0.1 µM, first compound 0.003 µM): 117%; viability, T/C (second compound 0.316 µM, first compound 0.000949 µM): 112%; viability, T/C (second compound 0.316 µM, first compound 0.003 µM): 106%; viability, T/C (second compound 1 µM, first compound 0.000949 µM): 114%; viability, T/C (second compound 1 µM, first compound 0.003 µM): 131%; viability, T/C (second compound 3.16 µM, first compound 0.000949 µM): 123%; viability, T/C (second compound 3.16 µM, first compound 0.003 µM): 128%; viability, T/C [22]: 80.8%; viability, T/C (second compound 10 µM, first compound 0.000949 µM): 122%; viability, T/C (second compound 10 µM, first compound 0.003 µM): 111%; viability, T/C [25]: 111%; viability, T/C [26]: 125%; viability, T/C [27]: 106%; viability, T/C [28]: 84%
3 | > 3 | > 3 | > 3 | > 3 | > 3 | O=C(C=Cn1cnc(-c2cc(C(F)(F)F)cc(C(F)(F)F)c2)n1)NNc1cnccn1 + CC(CO)NC(=O)c1cc(-c2ccc(Cl)cc2)nn(-c2cnn(C)c2)c1=O | 84 | 84.2 | 87.6 | 69.3 | 87.3 | 93 | 81 | 76 | 88.7 | 103 | 84 | 73.8 | 98.2 | 81.4 | 80.5 | viability, T/C [5]: 66.9%; viability, T/C [6]: 62.5%; viability, T/C [11]: 71.2%; viability, T/C [12]: 66%; viability, T/C [17]: 68.2%; viability, T/C [18]: 65.8%; viability, T/C [22]: 70%; viability, T/C [23]: 62.7%; viability, T/C [24]: 63%; viability, T/C [25]: 93.1%; viability, T/C [26]: 80%; viability, T/C [27]: 75.9%; viability, T/C [28]: 77.9%; viability, T/C [29]: 72.7%; viability, T/C [30]: 72.7%
